ChEMBL document CHEMBL3046956, “Photosynthetic Electron Transport Inhibitory Activity of 2-Aralkylamino-4-methyl-6-trifluoromethyl-1, 3, 5-triazine Derivatives” (J Pestic Sci, 1999)

Experiments:
[1] = Inhibition of photosynthetic electron transport in Spinacia oleracea (spinach) thylakoids using oxygen electrode by Boger method
[2] = Potency index, ratio of pI50 for simazine to pI50 for test compound against photosynthetic electron transport in Spinacia oleracea (spinach) thylakoids using oxygen electrode by Boger method

SMILES	pI50 [1]	Ratio [2]
Cc1nc(NCc2ccccc2Cl)nc(C(F)(F)F)n1	5.95	–
Cc1nc(NCc2ccc(F)cc2)nc(C(F)(F)F)n1	–	10
Cc1nc(NCc2ccc(C(F)(F)F)cc2)nc(C(F)(F)F)n1	–	10
Cc1nc(NCc2ccc(Br)cc2)nc(C(F)(F)F)n1	–	10
Cc1nc(NCc2ccc([N+](=O)[O-])cc2)nc(C(F)(F)F)n1	–	10
Cc1nc(NCc2ccc(Cl)cc2)nc(C(F)(F)F)n1	6.98	10
